Earlier results in paper PMC3230568 (International Journal of Nanomedicine, 2011).

Legend:
cancer cells [1] = conditions: azurin, relative to normal cells
p53 = conditions: azurin
NTD of p53 = conditions: biological as well as computational studies
cancer cells [2] = conditions: azurin
full-length p53 = full-length p53 (Homo sapiens, UniProt P04637); conditions: single-molecule AFS
[3] = azurin

full-length p53, sequence (P04637 whole entry): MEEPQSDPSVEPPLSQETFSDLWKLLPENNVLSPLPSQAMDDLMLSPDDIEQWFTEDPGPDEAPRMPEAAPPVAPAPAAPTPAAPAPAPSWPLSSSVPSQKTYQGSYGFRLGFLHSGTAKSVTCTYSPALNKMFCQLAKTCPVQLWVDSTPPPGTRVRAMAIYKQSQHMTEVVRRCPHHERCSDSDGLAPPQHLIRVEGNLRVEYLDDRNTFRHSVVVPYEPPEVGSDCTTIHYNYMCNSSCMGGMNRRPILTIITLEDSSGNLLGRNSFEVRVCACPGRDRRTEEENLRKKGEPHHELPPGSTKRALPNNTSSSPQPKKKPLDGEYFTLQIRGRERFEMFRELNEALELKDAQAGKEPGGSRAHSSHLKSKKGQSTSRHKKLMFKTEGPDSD

## azurin: copper-containing, electron-transfer protein secreted by Pseudomonas aeruginosa; 128-amino acid
Cancer cells [1]
  preferential entry into cancer cells: preferentially enters cancer relative to normal cells
p53
  effect on p53 level: stabilization and subsequent increase in intracellular concentration of p53
NTD of p53
  binding to p53 NTD: binds to either the NTD of p53
Cancer cells [2]
  anticancer activity in vitro: significant anticancer activity in vitro
full-length p53
  complex formation with full-length p53: a stable complex is formed
[3]
  anticancer activity in vivo: significant anticancer activity
